The molecules below were run on GM3 (assay: GM3 Elisa assay). Settings: Table 3 (IC 50 Values); B16-FO cells; read-out: IC50_uM_Mean.
Type: cell-based
In short: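 Murine B16-FO melanoma cells attached 6 h on collagen, then exposed to compounds for 2 days at 37 °C. After formaldehyde fixation, cell-surface GM3 (NeuAc) was detected by anti-GM3 IgM and peroxidase anti-mouse IgM with Quantablu fluorescence (Ex 325/Em 420).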

| IC50 [µM] | Compound |
| --- | --- |
| 3 to 10 | O=C(COC1CCCCC1)N[C@H](CN1CCCC1)[C@H](O)c1ccc2c(c1)OCCO2 [Compound 645] |
| 3 to 10 | Cc1noc(CCCCC(=O)N[C@H](CN2CC[C@@H](F)C2)[C@H](O)c2ccc3c(c2)OCCO3)n1 [Compound 646] |
| 0.1 to 1 | O=C(CCCCOCC(F)(F)F)N[C@H](CN1CCCC1)[C@H](O)c1ccc(OCc2ccccc2)cc1 [Compound 647] |
| 0.1 to 1 | O=C(CCCCc1nc(C2CC2)no1)N[C@H](CN1CCCC1)[C@H](O)c1ccc2c(c1)OCCO2 [Compound 650] |
| 1 to 3 | O=C(CCCOn1nnc2ccccc21)N[C@H](CN1CC[C@@H](F)C1)[C@H](O)c1ccc2c(c1)OCCO2 [Compound 651] |
| 3 to 10 | Cc1noc(CCCCC(=O)NC(CN2CCCC2)C(O)c2ccc3c(c2)OCCO3)n1 (stereo not shown) [Compound 652] |
| ≤ 0.1 | O=C(CCCCCC(=O)c1ccc(F)cc1)N[C@H](CN1CC[C@H](O)C1)[C@H](O)c1ccc2c(c1)OCCO2 [Compound 653] |
| 1 to 3 | O=C(CCCCC(=O)c1ccc(F)cc1)N[C@H](CN1CC[C@H](O)C1)[C@H](O)c1ccc2c(c1)OCCO2 [Compound 654] |
| 0.1 to 1 | COc1ccc(C(=O)CCCCC(=O)N[C@H](CN2CC[C@H](O)C2)[C@H](O)c2ccc3c(c2)OCCO3)cc1 [Compound 655] |
| ≤ 0.1 | O=C(CCCOc1ccc(F)cc1)N[C@H](CN1CC[C@H](O)C1)[C@H](O)c1ccc2c(c1)OCCO2 [Compound 656] |
| 0.1 to 1 | CCCCOc1ccc([C@@H](O)[C@@H](CN2CC[C@H](O)C2)NC(=O)CCCCC(=O)c2ccc(F)cc2)cc1 [Compound 657] |
| 0.1 to 1 | CCCCOc1ccc([C@@H](O)[C@@H](CN2CC[C@@H](F)C2)NC(=O)CCCCC(=O)c2ccc(F)cc2)cc1 [Compound 658] |
| 0.1 to 1 | CCCCOc1ccc([C@@H](O)[C@@H](CN2CC[C@@H](F)C2)NC(=O)CCCCCOCCF)cc1 [Compound 660] |
| 1 to 3 | CCCCOc1ccc([C@@H](O)[C@@H](CN2CC[C@H](O)C2)NC(=O)CCCCCOCCF)cc1 [Compound 661] |
| 0.1 to 1 | CCCCOc1ccc([C@@H](O)[C@@H](CN2CC[C@@H](F)C2)NC(=O)CCCCCOC2CCC2)cc1 [Compound 662] |
| 0.1 to 1 | CCCCC(=O)CCCCCCC(=O)N[C@H](CN1CCCC1)[C@H](O)c1ccc2c(c1)OCCO2 [Compound 663] |
| 1 to 3 | COc1ccc([C@@H](O)[C@@H](CN2CCCC2)NC(=O)CCCCCC(C)=O)cc1 [Compound 664] |

| IC50 [µM] | Compound |
| --- | --- |
| 3 to 10 | CC(=O)CCCCCC(=O)N[C@H](CN1CCCC1)[C@H](O)c1ccc(OC(F)(F)F)cc1 [Compound 665] |
| 0.1 to 1 | COc1ccc(C(=O)CCCCCC(=O)N[C@H](CN2CCCC2)[C@H](O)c2ccc(OC(F)(F)F)cc2)cc1 [Compound 666] |
| 0.1 to 1 | CCCCCCCC(=O)N[C@H](CN1CCCC1)[C@H](O)c1ccc(OC(F)(F)F)cc1 [Compound 667] |
| 1 to 3 | COc1ccc(C(=O)CCCCCC(=O)N[C@H](CN2CCCC2)[C@H](O)c2cc(OC)c(OC)c(OC)c2)cc1 [Compound 668] |
| 3 to 10 | CCCCCCCC(=O)N[C@H](CN1CCCC1)[C@H](O)c1cc(OC)c(OC)c(OC)c1 [Compound 669] |
| 3 to 10 | O=C1CCC(=O)N1[C@H](CN1CCCC1)[C@H](O)c1ccc2c(c1)OCCO2 [Compound 670] |
| 3 to 10 | COc1cc([C@@H](O)[C@@H](CN2CCCC2)NC(=O)CCCCCC(C)=O)cc(OC)c1OC [Compound 671] |
| 3 to 10 | CCCCCCCC(=O)N[C@@H](CN1CCCC1)[C@H](O)c1ccc2c(c1)OCCO2 [Compound 672] |
| 3 to 10 | CCCCCCCC(=O)N[C@H](CN1CCCC1)[C@@H](O)c1ccc2c(c1)OCCO2 [Compound 673] |
| 3 to 10 | CCCCCCCC(=O)N[C@@H](CN1CCCC1)[C@@H](O)c1ccc2c(c1)OCCO2 [Compound 677] |
| 3 to 10 | CCCCCCCCCCCCCCCC(=O)N[C@H](CNCc1ccccc1)[C@H](O)c1ccc2c(c1)OCCO2 [Compound 678] |
| 3 to 10 | CCCCCCCCCCCCCCCC(=O)N[C@H](CNCc1ccco1)[C@H](O)c1ccc2c(c1)OCCO2 [Compound 679] |
| ≤ 0.1 | CCCCCCCCCCCCCCCC(=O)N[C@H](CNC(C)C)[C@H](O)c1ccc2c(c1)OCCO2 [Compound 680] |
| 1 to 3 | CCCCCCCCCCCCCCCC(=O)N[C@H](CNC1CCCC1)[C@H](O)c1ccc2c(c1)OCCO2 [Compound 681] |
| 3 to 10 | CCCCCCCCCCCCCCCC(=O)N[C@H](CN(C)Cc1ccccc1)[C@H](O)c1ccc2c(c1)OCCO2 [Compound 682] |
| 3 to 10 | CCCCCCCCCCCCCCCC(=O)N[C@H](CN(C)Cc1ccco1)[C@H](O)c1ccc2c(c1)OCCO2 [Compound 683] |

Further lines, the molecule ahead of its results:

| Compound | IC50 [µM] |
| --- | --- |
| CCCCCCCC(=O)N[C@H](CN1CCC(C)CC1)[C@H](O)c1ccc2c(c1)OCCO2 [Compound 611] | 3 to 10 |
| CC1CCN(C[C@@H](NC(=O)CCCCCC(=O)c2ccccc2)[C@H](O)c2ccc3c(c2)OCCO3)CC1 [Compound 612] | 3 to 10 |
| CCCCCCCC(=O)N[C@H](CN1CCCC(C)C1)[C@H](O)c1ccc2c(c1)OCCO2 (stereo partly shown) [Compound 613] | 3 to 10 |
| O=C(N[C@H](CN1CCCC1)[C@H](O)c1ccc2c(c1)OCCO2)C1(C(F)(F)F)CCC1 [Compound 614] | 3 to 10 |
| O=C(N[C@H](CN1CCCC1)[C@H](O)c1ccc2c(c1)OCCO2)C(CCc1ccc(F)cc1)C(F)(F)F (stereo partly shown) [Compound 615] | 0.1 to 1 |
| O=C(N[C@H](CN1CCCC1)[C@H](O)c1ccc2c(c1)OCCO2)C1CCC(C(F)(F)F)CC1 (stereo partly shown) [Compound 616] | 3 to 10 |
| O=C(CCCCOCC(F)(F)F)N[C@H](CN1CCCC1)[C@H](O)c1ccc2c(c1)OCCO2 [Compound 617] | 1 to 3 |
| COc1ccc(C(=O)CCCCCC(=O)N[C@H](CN2CC(F)(F)C2)[C@H](O)c2ccc3c(c2)OCCO3)cc1 [Compound 618] | 3 to 10 |
| O=C(CCCCCC(=O)C1CC1)N[C@H](CN1CCCC1)[C@H](O)c1ccc2c(c1)OCCO2 [Compound 619] | 1 to 3 |
| O=C(CCCCCOCC(F)(F)F)N[C@H](CN1CCCC1)[C@H](O)c1ccc2c(c1)OCCO2 [Compound 620] | 0.1 to 1 |
| O=C(CCCCCC(F)(F)C(F)(F)F)N[C@H](CN1CCCC1)[C@H](O)c1ccc2c(c1)OCCO2 [Compound 621] | 1 to 3 |
| COc1ccc(OCCC(=O)N[C@H](CN2CC(F)(F)C2)[C@H](O)c2ccc3c(c2)OCCO3)cc1 [Compound 622] | 3 to 10 |
| CCCCCCCC(=O)N[C@H](CN1CC(F)(F)C1)[C@H](O)c1ccc2c(c1)OCCO2 [Compound 623] | 3 to 10 |
| O=C(CC(F)(F)F)N[C@H](CN1CCCC1)[C@H](O)c1ccc2c(c1)OCCO2 [Compound 624] | 3 to 10 |
| COc1ccc(C(=O)CCCCCC(=O)N[C@H](CN2CCC(F)(F)CC2)[C@H](O)c2ccc3c(c2)OCCO3)cc1 [Compound 625] | 3 to 10 |
| COc1ccc(C(=O)CCCCCC(=O)N[C@H](CN2CCC(F)CC2)[C@H](O)c2ccc3c(c2)OCCO3)cc1 [Compound 626] | 0.1 to 1 |
| COc1ccc(OCCC(=O)N[C@H](CN2CCC(F)(F)CC2)[C@H](O)c2ccc3c(c2)OCCO3)cc1 [Compound 627] | 3 to 10 |
| O=C(CCCCCC(=O)c1ccc(F)cc1)N[C@H](CN1CCCC1)[C@H](O)c1ccc2c(c1)OCCO2 [Compound 628] | ≤ 0.1 |
| CC(O)(CCCCCC(=O)N[C@H](CN1CCCC1)[C@H](O)c1ccc2c(c1)OCCO2)C1CC1 (stereo partly shown) [Compound 629] | 0.1 to 1 |

| Compound | IC50 [µM] |
| --- | --- |
| O=C(CCCCCC(F)(F)C1CC1)N[C@H](CN1CCCC1)[C@H](O)c1ccc2c(c1)OCCO2 [Compound 630] | 0.1 to 1 |
| O=C(CCCC#CC1(O)CCCCC1)N[C@H](CN1CCCC1)[C@H](O)c1ccc2c(c1)OCCO2 [Compound 631] | 3 to 10 |
| N#CCCCCCC(=O)N[C@H](CN1CCCC1)[C@H](O)c1ccc2c(c1)OCCO2 [Compound 632] | 3 to 10 |
| CC(O)(CCCCCC(=O)N[C@H](CN1CCCC1)[C@H](O)c1ccc2c(c1)OCCO2)C1CCCC1 (stereo partly shown) [Compound 633] | 0.1 to 1 |
| O=C(CCCCCCOCC(F)(F)F)N[C@H](CN1CCCC1)[C@H](O)c1ccc2c(c1)OCCO2 [Compound 634] | 0.1 to 1 |
| O=C(N[C@H](CN1CCCC1)[C@H](O)c1ccc2c(c1)OCCO2)C1CC[C@@H](C(=O)c2ccc(F)cc2)C1 (stereo partly shown) [Compound 635] | 3 to 10 |
| O=C(CC12CC3CC(CC(C3)C1)C2)N[C@@H](CN1CCCC1)C(O)c1ccc2c(c1)OCCO2 (stereo partly shown) [Compound 636] | 3 to 10 |
| O=C(CCC12CC3CC(CC(C3)C1)C2)N[C@H](CN1CCCC1)[C@H](O)c1ccc2c(c1)OCCO2 [Compound 637] | 0.1 to 1 |
| O=C(N[C@H](CN1CCCC1)[C@H](O)c1ccc2c(c1)OCCO2)C1(C(=O)c2ccc(F)cc2)CC1 [Compound 638] | 3 to 10 |
| O=C(CCCC(=O)c1ccc(F)cc1)N[C@H](CN1CCCC1)[C@H](O)c1ccc2c(c1)OCCO2 [Compound 639] | 0.1 to 1 |
| O=C(CCCCC(=O)c1ccc(F)cc1)N[C@H](CN1CCCC1)[C@H](O)c1ccc2c(c1)OCCO2 [Compound 640] | 0.1 to 1 |
| CC(O)(CCCCCC(=O)N[C@H](CN1CCCC1)[C@H](O)c1ccc2c(c1)OCCO2)C1CCCCC1 (stereo partly shown) [Compound 641] | ≤ 0.1 |
| O=C(CCCOn1nnc2ccccc21)N[C@H](CN1CCCC1)[C@H](O)c1ccc2c(c1)OCCO2 [Compound 642] | 0.1 to 1 |
| O=C(CCCn1cccn1)N[C@H](CN1CCCC1)[C@H](O)c1ccc2c(c1)OCCO2 [Compound 643] | 1 to 3 |
| O=C(CCCCCn1cccn1)N[C@H](CN1CCCC1)[C@H](O)c1ccc2c(c1)OCCO2 [Compound 644] | 1 to 3 |
| COc1ccc(OCCC(=O)N[C@@H](CN2CCCC2)[C@@H](O)c2ccc3c(c2)OCCO3)cc1 [Compound 674] | 3 to 10 |
| COc1ccc(OCCC(=O)N[C@@H](CN2CCCC2)[C@H](O)c2ccc3c(c2)OCCO3)cc1 [Compound 675] | 3 to 10 |
| COc1ccc(OCCC(=O)N[C@H](CN2CCCC2)[C@@H](O)c2ccc3c(c2)OCCO3)cc1 [Compound 676] | 3 to 10 |
